Values after ≈ are worked out from the molar mass of the structure shown.
Details: buffer; pH 7.4; 200.0 µM
In the case of `Cc1cc(=O)oc2c(CN3CCCC3)c(O)c(Cl)cc12`, the solubility kinetic is reported as > 44.1 µg/mL. For `CC(C)(C)C(=O)OCc1nc(-c2ccc(C(F)(F)F)cc2)cs1`, the solubility kinetic was < 0.7 µg/mL. Work on `CC(C)C[C@H](NC(=O)Nc1ccc2c(c1)OCCO2)C(=O)O` yielded a solubility kinetic of 41.1 µg/mL (≈ 133 µM). For `CC(C)(C)N(Cc1ccccc1)C(=O)COC(=O)C1CC1`, the solubility kinetic was > 43.4 µg/mL. For `Cc1ccc(NC(=O)CSc2nc(N)cc(=O)[nH]2)cc1S(=O)(=O)N1CCCCC1`, the solubility kinetic was 46.6 µg/mL (≈ 107 µM). With `COc1ccc(OC)c(N2C(=O)CC(NNC(=O)c3ccc4c(c3)OCO4)C2=O)c1` (centres undefined) the solubility kinetic was > 62 µg/mL. For `O=C(COC(=O)CNC(=O)c1ccccc1F)NC1CC1`, the solubility kinetic was > 44.1 µg/mL. Molecule `COc1cccc(C(=O)NC23CC4CC(CC(C4)C2)C3)c1` has a solubility kinetic of 24.8 µg/mL (≈ 86.9 µM). Molecule `COc1ccc(OCCSc2nc(N)cc(=O)[nH]2)cc1` has a solubility kinetic of 20.7 µg/mL (≈ 70.6 µM). With `CN(c1ccccc1C(=O)Nc1ccc2ccccc2c1)S(C)(=O)=O` the solubility kinetic was 48.6 µg/mL (≈ 137 µM). In the case of `O=C(Nc1cc([N+](=O)[O-])ccc1F)c1ccc2ccccc2c1`, the solubility kinetic is reported as < 0.3 µg/mL. `O=C(Nc1ccc(-c2cnco2)cc1)c1ccc(F)cc1F` showed a solubility kinetic of 0.8 µg/mL (≈ 2.66 µM). `CC(C)(C)c1ccc(C(=O)NCCNC(=O)c2ccco2)cc1` showed a solubility kinetic of 39.5 µg/mL (≈ 126 µM). With `COc1cccc(/C=C/C(=O)Nc2ccccc2N2CCOCC2)c1` the solubility kinetic was 28.1 µg/mL (≈ 83 µM). With `CCN(C(=O)CSc1nc2ccccc2[nH]1)C1CCS(=O)(=O)C1` (centres undefined) the solubility kinetic was > 53 µg/mL. Work on `Cc1ccc(NC(=O)C2CC3CCC2C3)c(Br)c1` (centres undefined) yielded a solubility kinetic of 1.9 µg/mL (≈ 6.16 µM). `CCOc1ccc(C(=O)N2CCc3ccccc32)cc1` showed a solubility kinetic of 13.3 µg/mL (≈ 49.8 µM). `NC(=O)c1ccccc1OCc1nc2ccccc2s1` gave a solubility kinetic of 19.5 µg/mL (≈ 68.6 µM). In the case of `COc1ccc(C(=O)NCCc2ccc(F)cc2)cc1OC`, the solubility kinetic is reported as > 45.5 µg/mL. Work on `Cc1ccc(CSC2=Nc3ccccc3C3=NC(=O)CN23)cc1` yielded a solubility kinetic of 4.9 µg/mL (≈ 15.2 µM). With `O=C(O)c1ccc(N=C2NC(=O)C(CO)(CO)S2)cc1` the solubility kinetic was > 44.4 µg/mL. For `CCOC(=O)NN1C(=O)c2ccccc2NC1c1ccccn1` (centres undefined), the solubility kinetic was > 46.8 µg/mL. For `COc1ccc(/C=C/C(=O)OCC(=O)Nc2ncc(Cl)cc2Cl)cc1`, the solubility kinetic was 8.1 µg/mL (≈ 21.2 µM). For `CCOc1ncccc1-c1nc(-c2cccs2)no1`, the solubility kinetic was 1.8 µg/mL (≈ 6.59 µM). With `Cc1cc(NS(=O)(=O)c2ccc(NC(=O)Cc3ccc([N+](=O)[O-])cc3)cc2)nc(C)n1` the solubility kinetic was > 66.2 µg/mL. For `CC1CCN(c2nc3ccccn3c(=O)c2C=O)CC1`, the solubility kinetic was > 40.7 µg/mL. In the case of `CCC1C(=O)N=C(SCC(=O)Nc2nc3ccccc3s2)NC1=O` (centres undefined), the solubility kinetic is reported as > 54.4 µg/mL. Work on `COc1ccc(CNC(=O)COC(=O)c2cc3ccccc3o2)cc1` yielded a solubility kinetic of 5.4 µg/mL (≈ 15.9 µM). For `COc1cccc(NC(=O)C(c2ccccc2)N2CCCC2)c1` (centres undefined), the solubility kinetic was > 46.6 µg/mL. With `Nc1cc([N+](=O)[O-])cc2oc(-c3ccccc3)cc12` the solubility kinetic was < 0.3 µg/mL. With `COc1cc(/C=C/C(=O)OCC(=O)NC(=O)NC(C)C)ccc1O` the solubility kinetic was > 50.5 µg/mL. With `CNC(=O)c1ccccc1S(=O)c1ccccc1COC(C)=O` (centres undefined) the solubility kinetic was > 49.7 µg/mL. `O=C(NCc1cccc(Cl)c1)C1CCCO1` (centres undefined) gave a solubility kinetic of 31.3 µg/mL (≈ 131 µM). With `COc1ccc([N+](=O)[O-])cc1Nc1c2ccccc2nc2ccccc12` the solubility kinetic was < 0.2 µg/mL. With `COc1ccc(Nc2nc(C)cc(C)c2C(N)=O)cc1OC` the solubility kinetic was 43.8 µg/mL (≈ 145 µM). Work on `COc1ccc(N2C(=O)CSC2c2ccccc2F)c(OC)c1` (centres undefined) yielded a solubility kinetic of 45.9 µg/mL (≈ 138 µM). `Cc1ccc(C(=O)OCC(=O)NC(C)c2ccccc2)s1` (centres undefined) showed a solubility kinetic of 16.1 µg/mL (≈ 53.1 µM). Molecule `O=C(Nc1cccc([N+](=O)[O-])c1)N1CCCc2ccccc21` has a solubility kinetic of 34.6 µg/mL (≈ 116 µM). For `CC(C)CC(=O)Nc1ccc(C(=O)COC(=O)C2CCC2)cc1`, the solubility kinetic was 5.3 µg/mL (≈ 16.7 µM). Work on `CCC(C)C(NC(N)=O)C(=O)NC1CCC(C)CC1` (centres undefined) yielded a solubility kinetic of 34.2 µg/mL (≈ 127 µM). With `COc1cc(NC(=O)c2ccccc2)c(OC)cc1NC(=O)Cc1ccc(C)cc1` the solubility kinetic was < 0.4 µg/mL. `Cc1ncc([N+](=O)[O-])n1CC(=O)Nc1ccc(F)cc1F` showed a solubility kinetic of 34 µg/mL (≈ 115 µM). With `COC(=O)c1sc(SC)c2c1CC(C)(C)C/C2=N/O` the solubility kinetic was < 0.6 µg/mL. `COC(=O)c1ccc(CNC(=O)[C@@H]2CCCN2S(=O)(=O)c2ccccc2F)cc1` gave a solubility kinetic of 60.7 µg/mL (≈ 144 µM). For `CCc1noc(C)c1C(=O)NCCc1ccc(Cl)cc1`, the solubility kinetic was > 43.9 µg/mL. `CC(C)(C)c1ccc(-c2nc3n(c(=O)c2C#N)CCS3)cc1` showed a solubility kinetic of 3.5 µg/mL (≈ 11.2 µM). With `CCNC(=O)CC1SC(=Nc2ccc(C)c([N+](=O)[O-])c2)N(C)C1=O` (centres undefined) the solubility kinetic was > 52.6 µg/mL. In the case of `CC(C)(CC(=O)O)CC(=O)Nc1ccc(Cl)c(Cl)c1`, the solubility kinetic is reported as > 45.6 µg/mL. For `Cc1ccc(NCC(=O)N/N=C/c2ccncc2)cc1`, the solubility kinetic was > 40.2 µg/mL. In the case of `CN1CCN(S(=O)(=O)Cc2ccccc2Cl)CC1`, the solubility kinetic is reported as > 43.3 µg/mL. `O=C(COC(=O)Cc1ccccc1[N+](=O)[O-])NCC1CCCCC1` showed a solubility kinetic of 10.8 µg/mL (≈ 32.3 µM). With `Cc1ccc(C)c(C(=O)CCC(=O)Nc2ccc(N3CCN(C)CC3)cc2C)c1` the solubility kinetic was 55.8 µg/mL (≈ 142 µM). For `O=C(NCCC(=O)N1CCCCC1)c1ccccc1Cl`, the solubility kinetic was > 44.2 µg/mL. `CNC(=O)C1=C(C)Nc2nc3ccccc3n2C1c1ccc(F)cc1` (centres undefined) gave a solubility kinetic of 48.9 µg/mL (≈ 145 µM). Work on `COCCNC(=O)C(=O)Nc1cc2c3c(c1)CCC(=O)N3CCC2` yielded a solubility kinetic of 46.4 µg/mL (≈ 140 µM). Work on `N/C(=N\OC(=O)/C=C/c1ccccc1)c1ccc(Cl)cc1` yielded a solubility kinetic of 1.3 µg/mL (≈ 4.32 µM). `Cc1ccn2cc(CCNC(=O)COc3ccccc3)nc2c1` showed a solubility kinetic of 40.6 µg/mL (≈ 131 µM). `CC(C)c1ccc(/C=C/C(=O)N2CCOCC2)cc1` gave a solubility kinetic of 36.3 µg/mL (≈ 140 µM). In the case of `Cc1cc(C)c(NC(=O)C2CC(=O)N(C(C)C)C2)c(C)c1` (centres undefined), the solubility kinetic is reported as > 43.3 µg/mL.
